Measurements published in ChEMBL document CHEMBL5506058, “Discovery of Quinazoline and Quinoline-Based Small Molecules as Utrophin Upregulators via AhR Antagonism for the Treatment of Duchenne Muscular Dystrophy” (J Med Chem, 2024).
In brackets after ≈: the same amount, converted by molar mass. Values belong to the compound of their own block, whether it stands above or below them. Activity calls are given as the source filed them. The calls are words filed in the database; no cut-off is given here.

Columns and labels:
[1] = Upregulation of utrophin expression in mouse C2C12 cells assessed as fold increase at 3 uM measured after 72 hrs by In-cell ELISA method; type: functional
[2] = Upregulation of utrophin protein expression in human patient derived KM1328 cells assessed as fold increase at 3 uM measured after 72 hrs by […]; type: functional
[3] = biological target: T1, Aryl hydrocarbon receptor (Mus musculus, UniProt P30561); test: Antagonist activity at AhR in mouse C2C12 cells assessed as reduction in ITE induced AhR nuclear translocation measured after 2 hrs by Hoechst 33258 staining based fluorescence microscopy analysis; type: cell-based; settings: c2c12, 2 h
T1 sequence (P30561 whole entry): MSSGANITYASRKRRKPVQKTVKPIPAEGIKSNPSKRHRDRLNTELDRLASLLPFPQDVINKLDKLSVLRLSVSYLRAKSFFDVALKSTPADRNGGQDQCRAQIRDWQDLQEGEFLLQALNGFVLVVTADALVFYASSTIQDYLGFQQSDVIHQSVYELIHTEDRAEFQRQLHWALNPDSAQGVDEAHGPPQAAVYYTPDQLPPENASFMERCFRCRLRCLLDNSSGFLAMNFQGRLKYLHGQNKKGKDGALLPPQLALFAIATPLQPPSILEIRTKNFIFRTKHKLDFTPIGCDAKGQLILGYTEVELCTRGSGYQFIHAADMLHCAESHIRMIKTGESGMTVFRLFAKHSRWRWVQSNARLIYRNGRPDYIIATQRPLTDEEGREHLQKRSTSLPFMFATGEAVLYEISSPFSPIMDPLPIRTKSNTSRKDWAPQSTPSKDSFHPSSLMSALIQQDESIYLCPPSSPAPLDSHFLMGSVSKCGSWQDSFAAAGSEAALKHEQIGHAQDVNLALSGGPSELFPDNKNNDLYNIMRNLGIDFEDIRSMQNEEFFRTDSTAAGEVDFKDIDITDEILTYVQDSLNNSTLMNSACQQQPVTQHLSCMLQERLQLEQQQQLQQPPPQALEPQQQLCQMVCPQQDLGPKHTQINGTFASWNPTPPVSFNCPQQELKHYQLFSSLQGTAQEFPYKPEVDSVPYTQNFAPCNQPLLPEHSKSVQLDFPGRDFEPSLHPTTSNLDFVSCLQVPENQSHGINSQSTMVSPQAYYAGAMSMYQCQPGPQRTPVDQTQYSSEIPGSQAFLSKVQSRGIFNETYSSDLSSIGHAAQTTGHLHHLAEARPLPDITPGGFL

C2C12 [4] = test: Cytotoxicity against mouse C2C12 cells assessed as reduction in cell viability at 0.78 to 100 uM measured after 24 hrs by MTT assay; type: toxicity, cell-based; settings: c2c12, 24 h, dose 0.78-100 µM
[5] = Upregulation of utrophin expression in mouse C2C12 cells assessed as fold increase at 800 nM measured after 72 hrs by In-cell ELISA method; type: functional
C2C12 [6] = test: Upregulation of utrophin mRNA expression in mouse C2C12 cells at 800 nM measured after 72 hrs by qRT-PCR analysis; type: functional, cell-based
C2C12 [7] = test: Upregulation of utrophin mRNA expression in mouse C2C12 level measured after 72 hrs by qRT-PCR analysis; type: functional, cell-based; settings: dose 200-800 nM
C2C12 [8] = test: Upregulation of utrophin protein expression in mouse C2C12 level measured after 72 hrs by Westernblot analysis; type: functional, cell-based; settings: dose 200-800 nM
[9] = Upregulation of utrophin protein expression in mouse C2C12 cells assessed as fold increase at 800 nM measured after 72 hrs by Western blot analysis; type: functional
[10] = Upregulation of utrophin mRNA expression in mouse C2C12 cells assessed as fold increase at 800 nM measured after 72 hrs by qRT-PCR analysis; type: functional
[11] = Upregulation of utrophin protein expression in human patient derived KM1328 cells assessed as fold increase at 800 nM measured after 72 hrs by Western blot analysis; type: functional
[12] = Binding affinity to recombinant AhR/ARNT (unknown origin) assessed as dissociation constant incubated for 30 mins by fluorescence quenching analysis; parameters: species or system Homo sapiens
[13] = Aqueous solubility of the compound in DMSO measured after 2 hrs by turbidity assay; type: physicochemical
[14] = Metabolic stability in rat liver microsomes assessed as intrinsic clearance at 5 uM preincubated for 5 mins followed by NADPH addition and measured upto 60 mins by LC-MS analysis; type: ADME, Microsome; settings: time < 65 min, read-out: CLH
[15] = Stability in human plasma assessed as remaining compound at 50 uM measured after 2 hrs by LC-MS and HPLC analysis; type: ADME, cell-free; settings: read-out: Stability
[16] = Stability in human serum assessed as remaining compound at 50 uM measured after 2 hrs by LC-MS and HPLC analysis; type: ADME, cell-free; settings: read-out: Stability
[17] = Lipophilicity, logD of the compound in cyclohexane/PBS at pH 7.4 measured after 1 hr by LC-MS and HPLC analysis; type: physicochemical; settings: pH 7.4, 1 h
[18] = Lipophilicity, logD of the compound in octanol/PBS at pH 7.4 measured after 1 hr by LC-MS and HPLC analysis; type: physicochemical
Homo sapiens = organism: Homo sapiens; test: Binding affinity to recombinant AhR/ARNT (unknown origin) assessed as binding constant incubated for 30 mins by fluorescence quenching analysis; settings: filed as antagonist
[19] = biological target: T1, Aryl hydrocarbon receptor; test: Induction of AhR nuclear translocation in mouse C2C12 cells at 800 nM measured after 2 hrs by Hoechst 33258 staining based fluorescence microscopy analysis; type: cell-based; settings: c2c12, 2 h, 0.8 µM
[20] = biological target: T1, Aryl hydrocarbon receptor; test: Antagonist activity at AhR in mouse C2C12 cells assessed as reduction in ITE induced AhR nuclear translocation at 800 nM measured after 2 hrs by Hoechst 33258 staining based fluorescence microscopy analysis; type: cell-based; settings: c2c12, 2 h, 0.8 µM
[21] = biological target: T1, Aryl hydrocarbon receptor; test: Antagonist activity at AhR in mouse C2C12 cells assessed as reversal of TCDD inhibited myogenesis by measuring fold change at 800 nM measured after 7 days by Hoechst 33258 staining based fluorescence microscopy analysis; type: cell-based; settings: c2c12, 168 h, 0.8 µM, time 7 day

Activity [3]: Not Active
Structure (SMILES): O=C(/C=C/C=C/c1ccc2c(c1)OCO2)N1CCCCC1 [PIPERINE]
fold change (FC) [1]: 1.3
fold change (FC) [2]: 0.99

Kd [12]: 41.7 nM
solubility kinetic at 2 h [13]: 30 µM (≈ 9.94 µg/mL)
microsomal CLint at 5 µM [14]: 6.66 µL/min/mg
remaining at 2 h, 50 µM [15]: 69.2%
remaining at 2 h, 50 µM [16]: 70%
logD [17]: 0.2
logD at 1 h [18]: 2.46
Ka (Homo sapiens): 24 µM⁻¹
Activity [19]: Not Active
Activity [20]: Active
fold change (FC) [21]: 2
Structure (SMILES): CS(=O)(=O)c1ccc2nc(NCc3ccc(F)cc3)ncc2c1
Activity (C2C12 [4]): Toxic
fold change (FC) [5]: 2.14
Activity (C2C12 [6]): Active
Activity (C2C12 [7]): Dose-Dependent Effect
Activity (C2C12 [8]): Dose-Dependent Effect
fold change (FC) [9]: 2.72
fold change (FC) [10]: 2.11
fold change (FC) [11]: 2.3
